From PubChem BioAssay AID1645866 (Buhrlage Lab, Dana-Farber Cancer Institute and Novartis …, 2021) come the findings set out here.

Calls of active or inactive are those of the source.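 The calls were made as follows: active = in confirmatory dose-response testing, peak deubiquitinase inhibition of 30% or more; inactive = the rest.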

The target of the test is Ubiquitin carboxyl-terminal hydrolase 28 (Homo sapiens) (UniProt Q96RU2). The test can be described thus: Concentration-response biochemical assay confirming initial hits as inhibitors of ubiquitin-specific protease 28 (AID 1645866). Conditions: purified USP28, ubiquitin-rhodamine fluorescence, 30 min.
Chain of Ubiquitin carboxyl-terminal hydrolase 28 (Homo sapiens) (Q96RU2 whole entry, looked up): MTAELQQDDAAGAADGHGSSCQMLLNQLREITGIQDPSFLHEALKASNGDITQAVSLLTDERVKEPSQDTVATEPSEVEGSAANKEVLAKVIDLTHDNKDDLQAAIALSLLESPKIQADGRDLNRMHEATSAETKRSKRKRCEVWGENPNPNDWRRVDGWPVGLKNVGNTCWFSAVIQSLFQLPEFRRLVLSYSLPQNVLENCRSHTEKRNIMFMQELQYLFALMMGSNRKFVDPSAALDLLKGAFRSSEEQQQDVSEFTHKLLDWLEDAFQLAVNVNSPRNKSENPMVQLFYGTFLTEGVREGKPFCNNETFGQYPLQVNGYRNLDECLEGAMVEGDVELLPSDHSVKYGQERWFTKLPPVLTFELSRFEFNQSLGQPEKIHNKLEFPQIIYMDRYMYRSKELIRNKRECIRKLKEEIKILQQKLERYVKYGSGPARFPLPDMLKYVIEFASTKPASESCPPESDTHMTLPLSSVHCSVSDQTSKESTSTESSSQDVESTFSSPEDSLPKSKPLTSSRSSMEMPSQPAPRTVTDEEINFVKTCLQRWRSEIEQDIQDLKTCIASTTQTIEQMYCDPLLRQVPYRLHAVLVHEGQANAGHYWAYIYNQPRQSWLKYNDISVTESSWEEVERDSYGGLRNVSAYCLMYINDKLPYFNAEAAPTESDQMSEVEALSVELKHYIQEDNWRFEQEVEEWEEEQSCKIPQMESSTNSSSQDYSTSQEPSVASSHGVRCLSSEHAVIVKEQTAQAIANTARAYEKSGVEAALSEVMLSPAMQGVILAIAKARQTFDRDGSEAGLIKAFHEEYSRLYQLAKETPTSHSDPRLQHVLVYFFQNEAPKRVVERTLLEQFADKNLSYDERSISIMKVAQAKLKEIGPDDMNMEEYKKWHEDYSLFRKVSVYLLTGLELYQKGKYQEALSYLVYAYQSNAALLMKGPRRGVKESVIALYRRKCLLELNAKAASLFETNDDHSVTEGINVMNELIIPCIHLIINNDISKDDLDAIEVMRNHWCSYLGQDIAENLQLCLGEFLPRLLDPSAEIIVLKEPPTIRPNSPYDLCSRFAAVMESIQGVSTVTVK

For `O=C(CC1C(=O)N(Cc2ccccc2)c2nc3ccccc3n21)NCCc1ccccc1` (stereo not drawn), the IC50 was 15.9 µM.

In the case of `Cn1ccc2c(cc(C(=O)NCCC3=CCCCC3)n2C)c1=O`, the IC50 is 21.1 µM.

In the case of `O=C(CN1CCCc2ccccc21)Nc1ccc(N2CCOCC2)cc1`, the IC50 is > 50 µM (inactive).

Consider `CC[C@H](C)C[C@H]1CC[C@](O)([C@](C)(O)C(=O)N[C@@H]2C(=O)N3NCCC[C@@H]3C(=O)N(O)[C@@H](C)C(=O)NCC(=O)N3NCCC[C@H]3C(=O)N(O)[C@H](C)C(=O)O[C@H]2C(C)C)O[C@@H]1C`, for which the IC50 was 1.52 µM.

As to `CC(C)N(C(=O)Cn1c(=O)[nH]c2ccccc21)c1ccccc1`, the IC50 is > 50 µM (inactive).

With `CC(C)Oc1ccc(C(=O)Nc2cccc(S(=O)(=O)N3CCCC3)c2)cc1`, the IC50 was 10.7 µM.

Turning to `Cc1ccc(S(=O)(=O)N2CCCCC2)cc1NC(=O)Cc1cccc(F)c1`, the IC50 is 5.05 µM.

Consider `NS(=O)(=O)c1cccc(NC(=O)CN2CCCc3ccccc32)c1`, for which the IC50 was > 50 µM (inactive).

Regarding `COc1cc(Cl)c(C)cc1NC(=O)Cn1c(=O)n(CC(=O)NCc2ccco2)c(=O)c2ccccc21`, the IC50 is 3.4 µM.

For the compound `O=C(CSc1nc2ccncc2[nH]1)Nc1ccc(Br)cc1F`, the 50% inhibitory concentration (IC50) was 26.5 µM.

In the case of `COc1ccc(CC(=O)Nc2cccc(-c3nc4ncccc4o3)c2)cc1OC`, the IC50 was > 50 µM (inactive).

In the case of `O=C1COc2ccccc2N1Cc1noc(-c2ccccc2)n1`, the IC50 is 4.6 µM.

For `Cc1ccc(C)c(NS(=O)(=O)c2cc(-c3cnc(C4CC4)o3)ccc2C)c1`, the IC50 is 34.7 µM.

Take `COc1cccc(NC(=O)Nc2ccc3nc4n(c(=O)c3c2)CCCC4)c1`: the IC50 is 3.13 µM.

As to `CN1CCN(C(=O)c2cc(-c3ccn(CC4CC4)n3)n3ccccc23)CC1`, the IC50 was > 50 µM (inactive).

With `Cc1ccc(-c2nc(Cn3cnc4ccccc4c3=O)cs2)cc1`, the IC50 is 4.97 µM.

For the compound `COCCNC(=O)c1ccc(-c2ccc(N3CCCCC3)nc2)cc1`, the IC50 is 19.6 µM.

Take `Cn1c(SCc2ccccc2)nnc1-c1csc(-c2ccccc2)n1`: the IC50 was 31.3 µM.

Turning to `Cc1cc(C(F)(F)F)n2nc(C3CCN(C(=O)c4cnn(C)c4C)C3)cc2n1` (stereo not drawn), the IC50 was > 50 µM (inactive).

For the compound `O=[N+]([O-])c1ccc2c(c1)nc1n2CCN(Cc2ccco2)C1`, the IC50 was > 50 µM (inactive).

Take `CCc1ccc(NC(=O)COC(=O)c2n[nH]c3ccccc23)cc1`: the IC50 is 12 µM.

Regarding `Cc1nc(CN2CCn3c(Cn4cccn4)cnc3C2C)cs1` (stereo not drawn), the IC50 is > 50 µM (inactive).

`Cc1nn(-c2ccc(F)cc2)cc1-c1noc(C(=O)NCc2ccccn2)n1`: the IC50 is 22.8 µM.

Regarding `CCCCn1c(=O)c(CCC(=O)OCC(=O)Nc2ccc3c(c2)OCCO3)nc2ccccc21`, the IC50 was 3.65 µM.

For `CCOc1ccc(C(=O)Cn2c(=O)n(CC3CCCO3)c(=O)c3cc(OC)c(OC)cc32)cc1Cl` (stereo not drawn), the IC50 was 23 µM.

Take `C=C1CCC2[C@](C)(CCC[C@]2(C)C(=O)OC)[C@H]1CCc1ccoc1CNC(C)C` (stereo partly drawn): the IC50 was > 50 µM (inactive).

As for `O=C(NC1CCS(=O)(=O)C1)c1ccc(N2CCC(Cc3ccccc3)CC2)nn1` (stereo not drawn), the IC50 was > 50 µM (inactive).

On to `CC1CC(=O)Nc2ccccc2N1S(=O)(=O)c1ccc(C#N)cc1` (stereo not drawn), for which the half-inhibitory concentration (IC50) is 33.1 µM.

For `Cc1ccccc1NC(=O)CNc1nc(Nc2ccccc2)nc(Nc2ccccc2)n1`, the IC50 was 19.1 µM.

On to `Cc1ccc2cc(CNc3ccccc3)c(=O)n(CC(=O)Nc3ccccc3C)c2c1`, for which the 50% inhibitory concentration (IC50) is 18.6 µM.

Consider `O=C(COc1nc2ccccc2nc1N1CCOCC1)Nc1cccc(S(=O)(=O)N2CCCCC2)c1`, for which the IC50 was > 50 µM (inactive).

Consider `Cc1ccc(NC(=O)c2ccn(COc3ccc(F)cc3)n2)nc1`, for which the IC50 is 33.3 µM.

As for `CC(C)(C)C(=O)C1C2C(=O)N(Cc3ccccc3)C(=O)C2C2c3ccccc3C=CN12` (stereo not drawn), the IC50 is > 50 µM (inactive).

With `Cc1ccc(C)c(-c2cc3c(=O)n(Cc4noc(CN5CCCCC5)n4)ccn3n2)c1`, the IC50 is 4.49 µM.

In the case of `Cc1ccc2c(Nc3ccc(CC(=O)O)cc3)c(C(=O)N3CCCC3)cnc2n1`, the IC50 is > 50 µM (inactive).

On to `O=C(CSc1ncnc2c1oc1ccccc12)Nc1ccc2c(c1)OCCO2`, for which the IC50 is 17.1 µM.

Turning to `O=C1Nc2ccccc2C(=O)C1C(c1ccc(Cl)cc1)C1C(=O)Nc2ccccc2C1=O` (stereo not drawn), the IC50 is 28.6 µM.

With `COc1ccc2nc3c(cc2c1)c(=O)n(C)c1c3c(=O)n(-c2ccccc2)c(=O)n1-c1ccccc1`, the IC50 was > 50 µM (inactive).

As for `CC(C)c1ccc(C(C(=O)NC2CCCCC2)N(C(=O)c2cnccn2)c2cccc(F)c2)cc1` (stereo not drawn), the IC50 was 23 µM.

Regarding `COc1cc(OC)cc(-n2c(=O)c3sccc3n(CC(=O)c3ccc(F)cc3)c2=O)c1`, the IC50 was 28 µM.

As for `O=C(NCc1ccc(Cl)cc1)Nc1cccc2ccccc12`, the IC50 is 40.4 µM.

For `CCOC(=O)c1cc2c(ccn2C)n1Cc1cccc2ccccc12`, the IC50 was > 50 µM (inactive).

Consider `CCC(CC)n1[nH]c(=O)c2c1NC(=O)CSC2c1ccc2c(c1)OCO2` (stereo not drawn), for which the IC50 is 18.6 µM.

As to `CC(=O)Nc1ccc(-n2cnc(C(=O)NC(C)c3ccccc3)c2)nc1` (stereo not drawn), the 50% inhibitory concentration (IC50) is 20.5 µM.

As to `Nc1c(-c2ccc(Cl)cc2)cnc2nc(Sc3ncc(C(F)(F)F)cc3Cl)nn12`, the IC50 was > 50 µM (inactive).

`CC(C)N1CC2CN(C(=O)c3ccccc3)CCN2Cc2ccccc21` (stereo not drawn): the IC50 is > 50 µM (inactive).

In the case of `O=c1c(S(=O)(=O)c2cc(F)cc(F)c2)c[nH]c2cc(Cl)ccc12`, the IC50 is 20.6 µM.

As for `CCc1noc(-c2ccc(OCC(=O)Nc3ccc(C)cc3C)cc2)n1`, the IC50 was 33.7 µM.

In the case of `Cc1ccc2nnc(-c3ccccc3)c(C(=O)N3CCN(c4ccccn4)CC3)c2c1`, the IC50 is 35 µM.

On to `O=C(Nc1ccc(F)cc1F)c1csc(-c2ccccc2)n1`, for which the IC50 was 24.4 µM.

As for `Oc1sc(C=Nc2cc(Cl)ccc2Cl)c2ccccc12`, the half-inhibitory concentration (IC50) was 2.98 µM.

Turning to `NS(=O)(=O)c1ccc(CNS(=O)(=O)c2ccc(-c3ccccn3)s2)cc1`, the IC50 is 19.9 µM.

In the case of `Cc1cc(Nc2ccc(C(=O)NCc3ccco3)cc2)n2nc(-c3cccnc3)nc2n1`, the IC50 was 22.3 µM.

On to `O=C(CCn1c(=O)c2ccccc2n(Cc2cc(=O)n3ccccc3n2)c1=O)NCCc1ccc(Cl)cc1`, for which the IC50 is 19.4 µM.

`COc1ccc(C(=O)Nc2sc3c(c2C(=O)NCc2cccnc2)CCCC3)cc1`: the IC50 is 11.8 µM.

On to `CC(=O)O[C@H]1[C@]2(O)C[C@]34SS[C@](CO)(C(=O)N3[C@@H]2C[C@@]12O[C@@H](C)C(C)(C)C2=O)N(C)C4=O`, for which the IC50 was > 50 µM (inactive).

As to `COc1ccccc1C(=O)NCC(c1ccc2c(c1)CCCN2C)N1CCCC1` (stereo not drawn), the IC50 was > 50 µM (inactive).

For `Cc1ccccc1NC(=O)Nc1ccccc1OCc1cc(=O)n2cccc(C)c2n1`, the IC50 is 1.04 µM.

Turning to `CCOc1ccccc1-c1nc(-c2nnn(Cc3ccccc3)c2C)no1`, the IC50 was > 50 µM (inactive).

Take `Cc1ccc(Cl)cc1NC(=O)COC(=O)c1ccc2ccccc2n1`: the IC50 is > 50 µM (inactive).

Consider `Cc1ccc(C2c3c(-c4ccccc4O)n[nH]c3C(=O)N2Cc2ccco2)cc1` (stereo not drawn), for which the IC50 is 20 µM.

As for `COc1ccc2c(c1)CCc1c-2n[nH]c1C(=O)Nc1cc(C)on1`, the half-inhibitory concentration (IC50) was 12.2 µM.

Regarding `N#C/C(=C\c1ccc(-c2cc(Cl)ccc2Cl)o1)c1nnc2n1CCCCC2`, the IC50 is > 50 µM (inactive).
